Laboratory results from ChEMBL document CHEMBL5661943, “ASAP - In vitro antiviral effect” (2024).
Values joined by “and” are separate entries in the source; they are usually repeats but may differ in a detail not shown here. Equal values may be shown once.

Columns and labels:
Zika virus [1] = experiment: (§1) Functional CPE-based assay to measure dose dependent changes in antiviral-drug inhibitory efficacy against Zika virus MR766 in Vero E6 miRFP670 cells. Cells are treated with antiviral candidates that are serially diluted. EC50 is reported via analysis of MTS assay as a readout of CPE. The assay has been performed by KU Leuven.; type: organism-based, Chlorocebus sabaeus, Vero C1008; conditions: Maximum response 100 %
Zika virus [2] = experiment: as §1, with “cells (cotreated with P-gp inhibitor, CP100356).” for “cells.”; type: organism-based, Chlorocebus sabaeus, Vero C1008; conditions: Baseline response 0 %, Maximum response 100 %, P-gp inhibitor CP100356
Zika virus [3] = experiment: (§2) Functional immunofluorescence assay to measure dose dependent changes in antiviral-drug inhibitory efficacy against Zika virus PRVABC59 in Vero E6/TMPRSS2 cells. Cells are treated with antiviral candidates that are serially diluted, following infection, cells are fixed. EC50 is reported via analysis of immunofluorescence staining. The assay has been performed by Icahn School of Medicine at Mount Sinai.; type: organism-based, Chlorocebus sabaeus
dengue virus type 2 [4] = experiment: Functional assay to measure dose dependent changes in antiviral-drug inhibitory efficacy against Dengue virus type 2 New Guinea C in Vero E6 miRFP670 cells (cotreated with P-gp inhibitor, CP100356). Cells are treated with antiviral candidates that are serially diluted, following infection, cells are fixed. EC50 is reported via analysis of fluorescence intensity using high-content imager. The …; type: organism-based, Chlorocebus sabaeus, Vero C1008; conditions: Baseline response 0 %, P-gp concentration 500 nM, P-gp inhibitor CP100356
Zika virus [5] = experiment: EC50 is reported via analysis of immunofluorescence staining. The assay has been performed by Icahn School of Medicine at Mount Sinai.; type: functional, organism-based, Chlorocebus sabaeus, VeroE6/TMPRSS2; conditions: Baseline response 0 %, P-gp concentration 2 uM, P-gp inhibitor Elacidar
dengue virus type 2 [6] = experiment: as §2, with “Dengue” for “Zika”, “type 2 Thailand/16681/84” for “PRVABC59”, “cells (cotreated with P-gp inhibitor, Elacridar).” for “cells.”; type: organism-based, Chlorocebus sabaeus, VeroE6/TMPRSS2
dengue virus type 2 [7] = experiment: as §2, with “Dengue” for “Zika”, “type 2 Thailand/16681/84” for “PRVABC59”; type: organism-based, Chlorocebus sabaeus

## C[C@@]1(O)[C@H](O)[C@@H](CO)O[C@H]1n1ccc2c(N)ncnc21 [BETA-2'-C-METHYL-7-DEAZA-ADENOSINE]
Zika virus [1]; Baseline response 0 %, EC90 CI (lower) 15.507 uM, EC90 CI (upper) 28.219 uM, Hill slope 1.884, Maximum measured 104.267 %, Minimum measured 0.699 %, R squared 0.993
  EC90: 20.9 µM
Zika virus [1]; Zika virus, Vero C1008, Baseline response 0 %, Hill slope 0.758, Maximum measured 14.246 %, Minimum measured -0.672 %, R squared 0.091
  EC90: > 50 µM
Zika virus [1]; Zika virus, Vero C1008, Baseline response 0 %, Hill slope 2.277, Maximum measured 74.443 %, Minimum measured -3.247 %, R squared 0.993
  EC90: > 50 µM
Zika virus [1]; Zika virus, Vero C1008, Baseline response 0 %, EC90 CI (lower) 6.665 uM, EC90 CI (upper) 20.693 uM, Hill slope 1.418, Maximum measured 92.41 %, Minimum measured 5.185 %, R squared 0.921
  EC90: 11.7 µM
Zika virus [2]; EC90 CI (lower) 1.33 uM, EC90 CI (upper) 21.491 uM, Hill slope 2.016, Maximum measured 119.759 %, Minimum measured 49.499 %, P-gp concentration 500 nM, R squared 0.708
  EC90: 5.34 µM
Zika virus [2]; EC90 CI (lower) 2.362 uM, EC90 CI (upper) 73.078 uM, Hill slope 2.992, Maximum measured 157.756 %, Minimum measured 1.417 %, P-gp concentration 500 nM, R squared 0.838
  EC90: 13.1 µM
Zika virus [2]; EC90 CI (lower) 3.073 uM, EC90 CI (upper) 52.816 uM, Hill slope 2.304, Maximum measured 128.398 %, Minimum measured 15.752 %, P-gp concentration 500 nM, R squared 0.861
  EC90: 12.7 µM
Zika virus [2]; EC90 CI (lower) 6.142 uM, EC90 CI (upper) 39.815 uM, Hill slope 2.116, Maximum measured 119.257 %, Minimum measured 3.222 %, P-gp concentration 500 nM, R squared 0.943
  EC90: 15.6 µM
Zika virus [2]; EC90 CI (lower) 6.409 uM, EC90 CI (upper) 24.739 uM, Hill slope 3.129, Maximum measured 131.405 %, Minimum measured -2.605 %, P-gp concentration 500 nM, R squared 0.913
  EC90: 12.6 µM
Zika virus [2]; EC90 CI (lower) 8.9 uM, EC90 CI (upper) 38.162 uM, Hill slope 2.016, Maximum measured 114.801 %, Minimum measured 5.397 %, P-gp concentration 500 nM, R squared 0.961
  EC90: 18.4 µM
Zika virus [2]; EC90 CI (lower) 10.323 uM, EC90 CI (upper) 42.716 uM, Hill slope 1.659, Maximum measured 113.143 %, Minimum measured 4.385 %, P-gp concentration 100 nM, R squared 0.967
  EC90: 21 µM
Zika virus [2]; EC90 CI (lower) 14.003 uM, EC90 CI (upper) 30.102 uM, Hill slope 3.316, Maximum measured 112.736 %, Minimum measured -6.737 %, P-gp concentration 500 nM, R squared 0.984
  EC90: 20.5 µM
Zika virus [2]; EC90 CI (lower) 17.062 uM, EC90 CI (upper) 43.343 uM, Hill slope 2.491, Maximum measured 123.53 %, Minimum measured -2.699 %, P-gp concentration 500 nM, R squared 0.955
  EC90: 27.2 µM
Zika virus [2]; EC90 CI (lower) 18.425 uM, EC90 CI (upper) 28.103 uM, Hill slope 2.492, Maximum measured 115.262 %, Minimum measured 4.379 %, P-gp concentration 500 nM, R squared 0.954
  EC90: 22.8 µM
Zika virus [2]; EC90 CI (lower) 23.748 uM, EC90 CI (upper) 39.727 uM, Hill slope 2.255, Maximum measured 100.144 %, Minimum measured -8.11 %, P-gp concentration 500 nM, R squared 0.982
  EC90: 30.7 µM
Zika virus [2]; EC90 CI (lower) 28.979 uM, EC90 CI (upper) 80.3 uM, Hill slope 3.379, Maximum measured 85.565 %, Minimum measured -8.762 %, P-gp concentration 500 nM, R squared 0.96
  EC90: 48.2 µM
Zika virus [2]; Hill slope 1.338, Maximum measured 86.023 %, Minimum measured -1.473 %, P-gp concentration 500 nM, R squared 0.993
  EC90: > 50 µM
Zika virus [3]; VeroE6/TMPRSS2
  EC50: > 10 µM
Zika virus [3]; VeroE6/TMPRSS2, Baseline response 0 %, Hill slope -0.033, Maximum measured 93.578 %, Maximum response 100 %, Minimum measured 41.57 %, R squared 0.011
  EC90: > 10 µM
Dengue virus type 2 [4]; EC90 CI (lower) 3.48 uM, EC90 CI (upper) 7.993 uM, Hill slope -1.843, Maximum measured 93.524 %, Maximum response 100 %, Minimum measured 0.518 %, R squared 0.959
  EC90: 57.2 µM
Dengue virus type 2 [4]; EC90 CI (lower) 4.11 uM, EC90 CI (upper) 8.283 uM, Hill slope -1.641, Maximum measured 89.89 %, Maximum response 100 %, Minimum measured 0.257 %, R squared 0.971
  EC90: 84.9 µM
Dengue virus type 2 [4]; EC90 CI (lower) 6.077 uM, EC90 CI (upper) 11.974 uM, Hill slope -2.703, Maximum measured 104.698 %, Maximum response 100 %, Minimum measured 1.385 %, R squared 0.989
  EC90: 43.4 µM
Dengue virus type 2 [4]; EC90 CI (lower) 9.48 uM, EC90 CI (upper) 152.006 uM, Hill slope -3.766, Maximum measured 162.932 %, Maximum response 100 %, Minimum measured 1.715 %, R squared 0.543
  EC90: 122 µM
Dengue virus type 2 [4]; EC90 CI (lower) 10.134 uM, EC90 CI (upper) 21.901 uM, Hill slope -2.086, Maximum measured 107.044 %, Maximum response 100 %, Minimum measured 0.795 %, R squared 0.961
  EC90: 122 µM
Dengue virus type 2 [4]; EC90 CI (lower) 13.312 uM, EC90 CI (upper) 68.915 uM, Hill slope -3.556, Maximum measured 71.93 %, Maximum response 65.616 %, Minimum measured 1.236 %, R squared 0.774
  EC90: 104 µM
Dengue virus type 2 [4]; EC90 CI (lower) 21.742 uM, EC90 CI (upper) 34.481 uM, Hill slope -3.397, Maximum measured 108.212 %, Maximum response 100 %, Minimum measured 0.235 %, R squared 0.983
  EC90: 99.8 µM
Zika virus [5]; EC90 CI (lower) 0.301 uM, EC90 CI (upper) 7.202 uM, Hill slope -3.742, Maximum measured 131.957 %, Maximum response 100 %, Minimum measured 2.652 %, R squared 0.767
  EC90: 4.77 µM
Zika virus [5]; Hill slope -0.425, Maximum measured 98.697 %, Maximum response 100 %, Minimum measured 17.927 %, R squared 0.629
  EC90: > 10 µM
Zika virus [5]; Hill slope -1.446, Maximum measured 54.457 %, Maximum response 40 %, Minimum measured 5.333 %, R squared 0.69
  EC90: > 10 µM
Zika virus [5]; Hill slope -2.191, Maximum measured 87.134 %, Maximum response 60 %, Minimum measured 12.691 %, R squared 0.704
  EC90: > 10 µM
Dengue virus type 2 [6]; Baseline response 0 %, Hill slope -0.711, Maximum measured 113.708 %, Maximum response 100 %, Minimum measured 27.128 %, P-gp concentration 2 uM, R squared 0.834, P-gp inhibitor Elacidar
  EC90: > 10 µM
Dengue virus type 2 [6]; Dengue virus, VeroE6/TMPRSS2
  EC90: > 10 µM
Dengue virus type 2 [6]; veroe6/tmprss2
  EC50: 8.6 µM and 2.59 µM
Dengue virus type 2 [7]; VeroE6/TMPRSS2
  EC50: 0.045 µM
Dengue virus type 2 [7]; VeroE6/TMPRSS2, Baseline response 43.084 %, EC90 CI (lower) 0 uM, EC90 CI (upper) 0 uM, Hill slope -11.259, Maximum measured 119.711 %, Maximum response 115.226 %, Minimum measured 27.831 %, R squared 0.402
  EC90: 0.055 µM
